Results: patent publication US6737383B1, “Herbicidal oxadiazolidines” (priority 1999, dated 2004)

How the values were obtained:
[1] = system: purple nutsedge; assay: Test D purple nutsedge; assay type: in vivo, Cyperus rotundus; settings: Postemergence, 0 to 100 scale
[2] = system: Green foxtail; assay: Test D green foxtail; assay type: in vivo; settings: Postemergence, 0 to 100 scale, 0 no injury, 100 complete control
[3] = system: Green foxtail; assay: Test D green foxtail; assay type: in vivo; settings: Postemergence, 0 to 100 scale, 0 no injury, 100 complete control; remark: listed apart in the source
[4] = system: common ragweed; assay: Test D common ragweed; assay type: in vivo, Ambrosia elatior; settings: Postemergence, 0 to 100 scale
[5] = system: bermuda-grass; assay: Test D bermudagrass; assay type: in vivo, Cynodon dactylon; settings: Postemergence, 0 to 100 scale
[6] = system: dallisgrass; assay: Test D dallisgrass; assay type: in vivo, Paspalum dilatatum; settings: Postemergence, 0 to 100 scale
[7] = system: sandbur; assay: Test D sandbur; assay type: in vivo, Cenchrus echinatus; settings: Postemergence, 0 to 100 scale
[8] = system: Spanishneedles; assay: Test D Spanishneedles; assay type: in vivo, Bidens bipinnata; settings: Postemergence, 0 to 100 scale
[9] = system: pitted morningglory; assay: Test D pitted morningglory; assay type: in vivo, Ipomoea lacunosa; settings: Postemergence, 0 to 100 scale
[10] = system: Johnson grass; assay: Test D Johnson grass; assay type: in vivo, Sorghum halepense; settings: Postemergence, 0 to 100 scale
[11] = Rate 16 g/ha, 0 no injury, 100 complete control
[12] = Rate 32 g/ha, 0 no injury, 100 complete control
[13] = Rate 64 g/ha, 0 no injury, 100 complete control
[14] = Rate 125 g/ha, 0 no injury, 100 complete control

CC(C)N(C(=O)n1oc(=O)n(C2CC2)c1=O)c1ccc(Cl)cc1 [Compound 241]
20: Plant response rating, C. ragweed [4, 13] | Sandbur plant response rating [7, 13]
10: Green foxtail plant response rating ([2]; Rate 64 g/ha) | Plant response rating, Green foxtail ([3]; Rate 32 g/ha) | Plant response rating, Spanishneedles ([8]; Rate 250 g/ha)
100: Green foxtail plant response rating ([2]; Rate 125 g/ha) | Plant response rating, C. ragweed [4, 14] | Plant response rating, C. ragweed ([4]; Rate 250 g/ha) | Plant response rating, Bermudagrass [5, 13] | Plant response rating, Bermudagrass [5, 14] | Plant response rating, Bermudagrass ([5]; Rate 250 g/ha) | Plant response rating, Dallisgrass ([6]; Rate 250 g/ha) | Sandbur plant response rating [7, 14]
90: Plant response rating, Dallisgrass [6, 14] | Plant response rating, Sandbur ([7]; Rate 250 g/ha)
30: Plant response rating, Bermudagrass [5, 12]
80: Plant response rating, Johnsongrass [10, 11]
0: Plant response rating, Purple nutsedge [1, 11] | Plant response rating, Purple nutsedge [1, 12] | Purple nutsedge plant response rating [1, 13] | Purple nutsedge plant response rating [1, 14] | Plant response rating, Purple nutsedge ([1]; Rate 250 g/ha) | Plant response rating, Green foxtail ([3]; Rate 16 g/ha) | Plant response rating, C. ragweed [4, 11] | Plant response rating, C. ragweed [4, 12] | Plant response rating, Bermudagrass [5, 11] | Plant response rating, Dallisgrass [6, 11] | Plant response rating, Sandbur [7, 11] | Plant response rating, Spanishneedles [8, 11] | Plant response rating, Spanishneedles [8, 12] | Spanishneedles plant response rating [8, 13] | Spanishneedles plant response rating [8, 14] | Plant response rating, P. morninglory [9, 11] | Plant response rating, P. morninglory [9, 12] | Plant response rating, P. morninglory [9, 13] | Plant response rating, P. morninglory [9, 14] | Plant response rating, P. morninglory ([9]; Rate 250 g/ha) | Plant response rating, Johnsongrass [10, 12] | Plant response rating, Johnsongrass [10, 13] | Plant response rating, Johnsongrass [10, 14] | Plant response rating, Johnsongrass ([10]; Rate 250 g/ha)
50: Plant response rating, Dallisgrass [6, 13]
40: Plant response rating, Dallisgrass [6, 12] | Plant response rating, Sandbur [7, 12]

CC(C)N(C(=O)n1oc(=O)n(C2CCC2)c1=O)c1ccccc1 [Compound 348]
90: Plant response rating, Dallisgrass [6, 13] | Plant response rating, Johnsongrass ([10]; Rate 250 g/ha)
50: Plant response rating, Dallisgrass [6, 12]
20: Plant response rating, Green foxtail ([3]; Rate 32 g/ha) | Plant response rating, C. ragweed ([4]; Rate 250 g/ha) | Plant response rating, Bermudagrass [5, 12] | Sandbur plant response rating [7, 13] | Plant response rating, Johnsongrass [10, 14]
100: Green foxtail plant response rating ([2]; Rate 64 g/ha) | Green foxtail plant response rating ([2]; Rate 125 g/ha) | Plant response rating, Bermudagrass [5, 13] | Plant response rating, Bermudagrass [5, 14] | Plant response rating, Bermudagrass ([5]; Rate 250 g/ha) | Plant response rating, Dallisgrass [6, 14] | Plant response rating, Dallisgrass ([6]; Rate 250 g/ha) | Plant response rating, Sandbur ([7]; Rate 250 g/ha)
60: Sandbur plant response rating [7, 14]
0: Plant response rating, Purple nutsedge [1, 11] | Plant response rating, Purple nutsedge [1, 12] | Purple nutsedge plant response rating [1, 13] | Purple nutsedge plant response rating [1, 14] | Plant response rating, Purple nutsedge ([1]; Rate 250 g/ha) | Plant response rating, Green foxtail ([3]; Rate 16 g/ha) | Plant response rating, C. ragweed [4, 11] | Plant response rating, C. ragweed [4, 12] | Plant response rating, C. ragweed [4, 13] | Plant response rating, C. ragweed [4, 14] | Plant response rating, Bermudagrass [5, 11] | Plant response rating, Dallisgrass [6, 11] | Plant response rating, Sandbur [7, 11] | Plant response rating, Sandbur [7, 12] | Plant response rating, Spanishneedles [8, 11] | Plant response rating, Spanishneedles [8, 12] | Spanishneedles plant response rating [8, 13] | Spanishneedles plant response rating [8, 14] | Plant response rating, Spanishneedles ([8]; Rate 250 g/ha) | Plant response rating, P. morninglory [9, 11] | Plant response rating, P. morninglory [9, 12] | Plant response rating, P. morninglory [9, 13] | Plant response rating, P. morninglory [9, 14] | Plant response rating, P. morninglory ([9]; Rate 250 g/ha) | Plant response rating, Johnsongrass [10, 11] | Plant response rating, Johnsongrass [10, 12] | Plant response rating, Johnsongrass [10, 13]

CC(C)N(C(=O)n1oc(=O)n(C2CCC2)c1=O)c1ccc(Cl)cc1 [Compound 349]
40: Plant response rating, Bermudagrass [5, 12] | Plant response rating, Johnsongrass ([10]; Rate 250 g/ha)
70: Plant response rating, Bermudagrass [5, 13]
100: Plant response rating, Bermudagrass [5, 14] | Plant response rating, Bermudagrass ([5]; Rate 250 g/ha)
60: Plant response rating, Dallisgrass [6, 14]
80: Green foxtail plant response rating ([2]; Rate 125 g/ha) | Plant response rating, Sandbur ([7]; Rate 250 g/ha)
20: Plant response rating, C. ragweed ([4]; Rate 250 g/ha) | Sandbur plant response rating [7, 14]
0: Plant response rating, Purple nutsedge [1, 11] | Plant response rating, Purple nutsedge [1, 12] | Purple nutsedge plant response rating [1, 13] | Purple nutsedge plant response rating [1, 14] | Plant response rating, Purple nutsedge ([1]; Rate 250 g/ha) | Plant response rating, Green foxtail ([3]; Rate 16 g/ha) | Plant response rating, Green foxtail ([3]; Rate 32 g/ha) | Plant response rating, C. ragweed [4, 11] | Plant response rating, C. ragweed [4, 12] | Plant response rating, C. ragweed [4, 13] | Plant response rating, C. ragweed [4, 14] | Plant response rating, Bermudagrass [5, 11] | Plant response rating, Dallisgrass [6, 11] | Plant response rating, Dallisgrass [6, 12] | Plant response rating, Dallisgrass [6, 13] | Plant response rating, Sandbur [7, 11] | Plant response rating, Sandbur [7, 12] | Sandbur plant response rating [7, 13] | Plant response rating, Spanishneedles [8, 11] | Plant response rating, Spanishneedles [8, 12] | Spanishneedles plant response rating [8, 13] | Spanishneedles plant response rating [8, 14] | Plant response rating, Spanishneedles ([8]; Rate 250 g/ha) | Plant response rating, P. morninglory [9, 11] | Plant response rating, P. morninglory [9, 12] | Plant response rating, P. morninglory [9, 13] | Plant response rating, P. morninglory [9, 14] | Plant response rating, P. morninglory ([9]; Rate 250 g/ha) | Plant response rating, Johnsongrass [10, 11] | Plant response rating, Johnsongrass [10, 12] | Plant response rating, Johnsongrass [10, 13]
10: Green foxtail plant response rating ([2]; Rate 64 g/ha) | Plant response rating, Johnsongrass [10, 14]
90: Plant response rating, Dallisgrass ([6]; Rate 250 g/ha)
